Where a name gives a salt, the structure may show the parent alone. Read-outs that look alike come from different tables or passages of the source.
How the values were obtained:
[1] = molecular target: MCL-1 (Homo sapiens, UniProt Q07820, K194A/K197A/R201A); assay: Protein-protein interaction assay MCL-1/Noxa BH3 peptide, TR-FRET (MCL-1 assay, Assay 1); assay type: binding; details: MCL-1 Assay [M] (median), MBP-MCL-1 / Noxa BH3 peptide
Summary of the method: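 TR-FRET competition between compounds and a biotin-PEG Noxa BH3 tracer for 1 nM MBP-MCL-1 (residues 173-321). Incubation was 1 h at 22 °C in the dark, then overnight at 4 °C, in 50 mM Tris pH 7 buffer with KF and DTT, after a 10-min compound pre-equilibration. Normalized ratios were fitted with a 4-parameter Hill equation to give IC50.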

[2] = tested on: SUDHL5; assay: Induction of cytotoxicity in SUDHL5 cells, CellTiter-Glo (Assay 6); assay type: cell-based; details: SUDHL5, 5 hours incubation, median, read-out: Cytotox SUDHL5 [M] (median)
Summary of the method: (§1)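 Run alongside apoptosis assays, this cytotoxicity measure used a 5-hour compound incubation at 37° C in humidified conditions, following overnight attachment. Cell viability was quantified by CellTiter-Glo luminescence.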

[3] = tested on: SUDHL10; assay: Induction of caspase-3/7 activity in SUDHL10 cells (Assay 4); assay type: cell-based
Summary of the method: (§2)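 Luminescent Caspase-Glo 3/7 read-out in SUDHL5 and SUDHL10 cells after 3 h compound exposure at 37 °C, followed by 1 h reagent incubation.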

[4] = tested on: SUDHL5; assay: Induction of caspase-3/7 activity in SUDHL5 cells (Assay 4); assay type: cell-based
Summary of the method: as §2

[5] = tested on: AMO-1; assay: Anti-proliferative effect in AMO-1 cells, CellTiter-Glo (Assay 7); assay type: cell-based; details: several values per example
Protocol: (§3) Assessment of the Anti-Proliferative Effect of Compounds in Different Cell Lines
(§4) The impact of compounds on the proliferation of different cell lines was assessed using the CellTiter-Glo® Luminescent Cell Viability reagent from Promega (G7573).
(§5) In parallel, cells were plated in a reference (day 0) plate for time zero determination. Cells were incubated in a humidified incubator at 37° C. overnight.
(§6) Rim wells were excluded. The cells were incubated for 72 hours in a humidified incubator at 37° C. The day 0 plate was measured by adding 30 μL/well of CTG solution (CellTiter-Glo® Luminescent Cell Viability reagent, Promega G7573) to time zero wells in the reference plate followed by a 10 minutes incubation and luminescence reading at 0.1 ms. using the PHERAstar FS microplate reader (BMG Labtech).
(§7) After 72 hours incubation, the treated plates were measured in the same way as the day 0 plate mentioned above. The Bella DRC Master Sheet was used to calculate IC50s, with CI=day 0 values and C0=DMSO control values.

[6] = tested on: MV-4-11; assay: Anti-proliferative effect in MV-4-11 cells, CellTiter-Glo (Assay 7); assay type: cell-based; details: several values per example
Protocol: as §3, §4, §5, §6, §7

[7] = tested on: SUDHL5; assay: Anti-proliferative effect in SUDHL5 cells, CellTiter-Glo (Assay 7); assay type: cell-based
Summary of the method: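 Overnight seeding at 37 °C, then 72 h treatment with compound; day 0 plate read at start. Luminescent ATP-based viability readout (CellTiter-Glo). IC50 normalised between day 0 and DMSO values.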

[8] = tested on: SUDHL10; assay: Induction of cytotoxicity in SUDHL10 cells, CellTiter-Glo (Assay 6); assay type: cell-based; details: SUDHL10, 5 hours incubation, median, read-out: Cytotox SUDHL10 [M] (median)
Summary of the method: as §1

[9] = Homo sapiens, SU-DHL10, 3 h, SUDHL10, 3 hours treatment, Caspase-Glo 3/7, median, read-out: Caspase SUDHL10 [M] (median)
[10] = Homo sapiens, SU-DHL-5, 3 h, SUDHL5, 3 hours treatment, Caspase-Glo 3/7, median, read-out: Caspase SUDHL5 [M] (median)
[11] = Homo sapiens, AMO1, 72 h, AMO-1, 72 hours incubation, CellTiter-Glo, read-out: Antiproli AMO-1
[12] = Homo sapiens, MV4-11, 72 h, MV-4-11, 72 hours incubation, CellTiter-Glo, read-out: Antiproli MV-4-11
[13] = Homo sapiens, SU-DHL-5, 72 h, SUDHL5, 72 hours incubation, CellTiter-Glo, median, read-out: Antiproli SUDHL5 [M] (median)
[14] = read-out: Caspase SUDHL10 [M] (median), SUDHL10, 3 hours treatment, Caspase-Glo 3/7
[15] = read-out: Caspase SUDHL5 [M] (median), SUDHL5, 3 hours treatment, Caspase-Glo 3/7
[16] = read-out: Antiproli AMO-1, AMO-1, 72 hours incubation, CellTiter-Glo
[17] = read-out: Antiproli MV-4-11, MV-4-11, 72 hours incubation, CellTiter-Glo
[18] = read-out: Antiproli SUDHL5 [M] (median), SUDHL5, 72 hours incubation, CellTiter-Glo

MCL-1, sequence (Q07820 173-321 K194A/K197A/R201A, looked up): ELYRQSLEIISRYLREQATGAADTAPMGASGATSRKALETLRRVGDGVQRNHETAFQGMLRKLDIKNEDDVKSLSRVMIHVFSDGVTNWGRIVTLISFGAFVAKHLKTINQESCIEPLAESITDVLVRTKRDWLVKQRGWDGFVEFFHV

Row | EC50 [3, 9] | EC50 [4, 10] | IC50 [6, 12] | IC50 [7, 13] | Structure (SMILES) | IC50 [1] | IC50 ([2]; Homo sapiens, SU-DHL-5, 5 h) | IC50 [5, 11] | IC50 ([8]; Homo sapiens, SU-DHL10, 5 h) | IC50 [2] | IC50 [8] | other results
1 | 1.2e-05 M | 4.6e-06 M | 1.18e-05 M | 4.9e-06 M | Cc1nn(C)c2c1-c1c(F)ccc3c(CCCOc4cccc5c4CCCC5)c(C(=O)O)n(c13)Cc1ccccc1COC2 (racemic) [Example 83, (rac)-15-Fluoro-12,14-dimethyl-1-(3-((5,6,7,8-tetrahydronaphthalen-1-yl)oxy)propyl)-4,9,11,12-tetrahydrobenzo[3,4]pyrazolo[4′,3′:9,10][1]oxa[6]azacycloundecino[8,7,6-hi]indole-2-carboxylic Acid] | 1e-08 M | 3.4e-06 M | 1.61e-05 M | 5.5e-06 M | – | – | –
2 | – | – | – | – | CCc1nn(C)c2c1-c1c(Cl)ccc3c(CCCOc4cccc5cc(F)ccc45)c(C(=O)O)n(c13)Cc1ccccc1COC2 (single isomer, unassigned; enantiomer 2) [Example 59, (−)-3-Chloro-4-ethyl-17-{3-[(6-fluoronaphthalen-1-yl)oxy]propyl}-6-methyl-6,7,9,14-tetrahydro-indolo[7,1-fg]pyrazolo[3,4-d][2,8]benzoxazacycloundecine-16-carboxylic acid-N-ethylethanamine Salt (Enantiomer 2)] | 1e-08 M | 2.2e-06 M | – | 8.2e-06 M | – | – | EC50 ([3]; Homo sapiens, SU-DHL10, 3 h, read-out: Caspase SUDHL10 [M] (median), SUDHL10, 3 hours treatment, Caspase-Glo 3/7): 7.9e-06 M; EC50 ([4]; Homo sapiens, SU-DHL-5, 3 h, read-out: Caspase SUDHL5 [M] (median), SUDHL5, 3 hours treatment, Caspase-Glo 3/7): 1.9e-06 M; IC50 ([5]; Homo sapiens, AMO1, 72 h, read-out: Antiproli AMO-1 [M], AMO-1, 72 hours incubation, CellTiter-Glo): 7.14e-06 M; IC50 ([6]; Homo sapiens, MV4-11, 72 h, read-out: Antiproli MV-4-11 [M], MV-4-11, 72 hours incubation, CellTiter-Glo): 4.5e-06 M; IC50 ([7]; Homo sapiens, SU-DHL-5, 72 h, read-out: Antiproli SUDHL5 [M] (median), SUDHL5, 72 hours incubation, CellTiter-Glo): 2.6e-06 M
3 | 2e-05 M | 3.7e-06 M | 1.7e-05 M | 6.9e-06 M | Cc1cc(OCCCc2c(C(=O)O)n3c4c(c(F)ccc24)-c2c(C)nn(C)c2COCc2ccccc2C3)cc(C)c1Cl (racemic) [Example 85, (rac)-1-(3-(4-chloro-3,5-dimethylphenoxy)propyl)-15-fluoro-12,14-dimethyl-4,9,11,12-tetrahydrobenzo[3,4]pyrazolo[4′,3′:9,10][1]oxa[6]azacycloundecino[8,7,6-hi]indole-2-carboxylic Acid] | 1.2e-08 M | 3.3e-06 M | 2.37e-05 M | 6.5e-06 M | – | – | –
4 | – | – | – | – | Cc1c2c(nn1C)COCc1ccccc1Cn1c(C(=O)O)c(CCCOc3cccc4ccccc34)c3ccc(F)c-2c31 (single isomer, unassigned; enantiomer 2) [Example 69, (+)-3-Fluoro-4,5-dimethyl-17-{3-[(naphthalen-1-yl)oxy]propyl}-5,7,9,14-tetrahydroindolo[7,1-fg]pyrazolo[3,4-d][2,8]benzoxazacycloundecine-16-carboxylic acid-N-ethylethanamine Salt (Enantiomer 2)] | 2.1e-08 M | – | – | – | 1.4e-05 M | > 3.3e-05 M | EC50 [3, 14]: > 3.3e-05 M; EC50 [4, 15]: 1.3e-05 M; IC50 [5, 16]: 2.6e-05 M; IC50 [6, 17]: 1.51e-05 M; IC50 [7, 18]: 1.2e-05 M
5 | – | – | – | – | CCc1c2c(nn1C)COCc1ccccc1Cn1c(C(=O)O)c(CCCOc3cccc4cc(F)ccc34)c3ccc(F)c-2c31 (single isomer, unassigned; enantiomer 2) [Example 75, (+)-4-Ethyl-3-fluoro-17-{3-[(6-fluoronaphthalen-1-yl)oxy]propyl}-5-methyl-5,7,9,14-tetrahydro-indolo[7,1-fg]pyrazolo[3,4-d][2,8]benzoxazacycloundecine-16-carboxylic acid-N-ethylethanamine Salt (Enantiomer 2)] | 3e-09 M | – | – | – | 5.2e-06 M | 1e-05 M | EC50 [3, 14]: 1.5e-05 M; EC50 [4, 15]: 4.4e-06 M; IC50 [5, 16]: 1.25e-05 M; IC50 [6, 17]: 1.64e-05 M; IC50 [7, 18]: 5.8e-06 M
6 | 6.9e-06 M | 2.7e-06 M | 1.42e-05 M | 4.3e-06 M | CCc1nn(C)c2c1-c1c(F)ccc3c(CCCOc4cc(C)c(Cl)c(C)c4)c(C(=O)O)n(c13)Cc1ccccc1COC2 (racemic) [Example 86, (rac)-1-(3-(4-Chloro-3,5-dimethylphenoxy)propyl)-14-ethyl-15-fluoro-12-methyl-4,9,11,12-tetrahydrobenzo[3,4]pyrazolo[4′,3′:9,10][1,6]oxaazacycloundecino[8,7,6-hi]indole-2-carboxylic Acid] | 1.1e-08 M | 2.9e-06 M | 1.69e-05 M | 5.2e-06 M | – | – | –
7 | 8.3e-06 M | 2.9e-06 M | 8.44e-06 M | 4e-06 M | CCc1nn(C)c2c1-c1c(F)ccc3c(CCCOc4ccc(F)c5ccccc45)c(C(=O)O)n(c13)Cc1ccccc1COC2 (racemic) [Example 89, (rac)-14-Ethyl-15-fluoro-1-(3-((4-fluoronaphthalen-1-yl)oxy)propyl)-12-methyl-4,9,11,12-tetrahydrobenzo[3,4]pyrazolo[4′,3′:9,10][1,6]oxaazacycloundecino[8,7,6-hi]indole-2-carboxylic Acid] | 1.2e-08 M | 2.6e-06 M | 1.28e-05 M | 7.5e-06 M | – | – | –

Row | Structure (SMILES) | EC50 [3, 9] | EC50 [4, 10] | IC50 [6, 12] | IC50 [7, 13] | IC50 [1] | IC50 ([2]; Homo sapiens, SU-DHL-5, 5 h) | IC50 [5, 11] | IC50 ([8]; Homo sapiens, SU-DHL10, 5 h) | IC50 [2] | IC50 [8] | other results
8 | Cc1c2c(nn1C)CN(C)Cc1ccccc1Cn1c(C(=O)O)c(CCCOc3cccc4ccccc34)c3cccc-2c31 (single isomer, unassigned; enantiomer 2) [Example 16, 4,5,8-Trimethyl-17-[3-(naphthalen-1-yloxy)propyl]-7,8,9,14-tetrahydro-5H-indolo[1,7-bc]pyrazolo[4,3-e][2,8]benzodiazacycloundecine-16-carboxylic Acid (Enantiomer 2)] | > 3.3e-05 M | 2.4e-05 M | 1.15e-05 M | – | 1.1e-07 M | – | 2.03e-05 M | – | 2.4e-05 M | 3e-05 M | –
9 | CCc1nn(CCN2CCOCC2)c2c1-c1c(Cl)ccc3c(CCCOc4cccc5cc(F)ccc45)c(C(=O)O)n(c13)Cc1ccccc1COC2 (racemic) [Example 51, (rac)-3-Chloro-4-ethyl-17-{3-[(6-fluoronaphthalen-1-yl)oxy]propyl}-6-[2-(morpholin-4-yl)ethyl]-6,7,9,14-tetrahydroindolo[7,1-fg]pyrazolo[3,4-d][2,8]benzoxazacycloundecine-16-carboxylic Acid] | 1.8e-06 M | 8.7e-07 M | 1.96e-06 M | 7.1e-07 M | 1.5e-09 M | 1.1e-06 M | 4.26e-06 M | 1.9e-06 M | – | – | IC50 ([5]; AMO-1, 72 hours incubation, CellTiter-Glo, read-out: Antiproli AMO-1): 2.64e-06 M; IC50 ([6]; MV-4-11, 72 hours incubation, CellTiter-Glo, read-out: Antiproli MV-4-11): 2.58e-06 M
